The test has as its target T1, hVR1 (Homo sapiens, UniProt Q8NER1).
T1 construct: expressed in transfected cells; host or cells: T-REx System cell line (Invitrogen Cat# R710-07), called 'human keratinocyte cell line' and 'HEK 293 cells'; vector pcDNA5/TO (Invitrogen Cat# V1033-20); expression induced with doxycycline
Nature of the test: Calcium uptake assay (FLIPR), inhibition of agonist-induced calcium influx in cells expressing hVR1. To be noted: cells expressing human VR1, 2 or 30 min pre-incubation. It is filed as cell-based. As for the experimental part: The syntheses of these representative compounds were carried out in accordance with the methods set forth above, and activity of the compounds was measured by percent inhibition in a calcium uptake assay, the details of which are described below.
Functional activity of compounds against the VR1 receptor was determined by measuring changes in intracellular calcium in HEK 293 cells expressing hVR1. Compounds were examined for their ability to inhibit agonist-induced calcium influx. Relative levels of [Ca^2+] were monitored in a 96-well format using a calcium-sensitive fluorescence dye and a FLIPR TETRA, Molecular Devices.
Cells that express high levels of VR1 were obtained by generation of a cell line from human keratinocytes with heterologous expression of VR1 under control of an inducible promoter. Specifically, cells expressing human VR1 under the control of the human cytomegalovirus immediate-early (CMV) promoter and two tetracycline operator 2 (TetO2) sites were made using the T-REx System (Invitrogen, Carlsbad, Calif., USA). Details and methods concerning this system are published (Hum. Gene Ther. 9, pp. 1939-1950, 1998; Annu. Rev. Microbiol. 48, pp. 345-369, 1994; Mol. Biol. 169, pp. 707-721, 1983). Human VR1 was subcloned into the T-REx System pcDNA5/TO vector (Invitrogen Cat# V1033-20) which was transfected into the T-REx System human keratinocyte cell line (Invitrogen Cat# R710-07) from which a stable cell line was established which expresses VR1 after induction by exposure to tetracycline or doxycycline (Hum. Gene Ther. 9, pp. 1939-1950, 1998; instructions that come with purchase of products noted above). Cells were maintained in a CO2 incubator (5% CO2) at 37° C. in culture medium containing DMEM with phenol red (Mediatech Cat #: 15-017-CV) supplemented with 10% heat-inactivated Fetal Bovine Serum, 5% Penicillin-streptomycin (Mediatech Cat #: 30-002-CI), 5% Glutamax® (L-Alanyl-L-Glutamine, Mediateach Cat #: 25-015-CI), 200 μg/ml hygromycin (Mediatech #:30-240-CR), 0.5 μg/ml blasticidin (Invitrogen #46-1120)).
For assay preparation, cells expressing human VR1 as described above were plated in 96-well plates (Becton Dickinson [BD] poly-D-lysine coated 96-well plates, cat#356692) at 55,000 cells per well in culture media (described above) that also contained 1 ug/ml doxycycline. Plated cells were then placed in an incubator (5% CO2) and incubated for 20-26 hours at 37° C., until the cells had grown to near confluency. Media was then aspirated from cells and 50 uL of dye-containing buffer (from Molecular Devices FLIPR Calcuim 4 Assay kit, cat# R8141) was added to each well. Cells were then left in the dark at room temperature for 1.5-2 hours. Cell plates were then placed in the FLIPR TETRA (Molecular Devices, CA, USA). Test compounds and agonists were added to wells using the liquid handling capability of the FLIPR TETRA. Calcuim responses of the cells were monitored by fluorescence readout of dye signal. Test compounds in saline (130 mM NaCl, 17 g/L sucrose, 1.8 g/L glucose, 8.8 mM HEPES, 3 mM KCl, 0.60 mM MgCl, 1.0 mM CaCl2; adjust to pH 7.4 using NaOH; 0.03% BSA added on the day of the experiment), or vehicle control in saline, were pre-incubated at the desired final concentrations in the dark at room temperature for 2 or 30 minutes with cells already containing the above mentioned dye buffer (dye solution was diluted 1:1 in culture wells with saline containing 2× the final concentration of test compound). […] Another agonist was protons via a low pH solution (saline solution described above plus 10 mM citric acid buffered to pH 5.7 with HCl instead of buffering to a neutral pH with NaOH as done for normal saline). Compounds were tested at various concentration ranges, depending upon potency of compound.

Setting [1] is: IC50 (nM) Capsaicin, agonist capsaicin at 10 nM or its EC50.
Where [2] appears, read: read-out: IC50 (nM) Capsaicin, agonist capsaicin at 10 nM or its EC50.
Setting [3] is: agonist protons, low pH solution pH 5.7, read-out: IC50 (nM) Low pH.

Where two headings read alike, the source gives them in different places. Where only a bound is given, the exact number is not on record here.

This note sets out measurements from patent publication US8153651B2, “Amide derivatives as ion-channel ligands and pharmaceutical compositions and methods of using the same” (Evotec AG, priority 2007, dated 2012).

T1 sequence (Q8NER1 whole entry): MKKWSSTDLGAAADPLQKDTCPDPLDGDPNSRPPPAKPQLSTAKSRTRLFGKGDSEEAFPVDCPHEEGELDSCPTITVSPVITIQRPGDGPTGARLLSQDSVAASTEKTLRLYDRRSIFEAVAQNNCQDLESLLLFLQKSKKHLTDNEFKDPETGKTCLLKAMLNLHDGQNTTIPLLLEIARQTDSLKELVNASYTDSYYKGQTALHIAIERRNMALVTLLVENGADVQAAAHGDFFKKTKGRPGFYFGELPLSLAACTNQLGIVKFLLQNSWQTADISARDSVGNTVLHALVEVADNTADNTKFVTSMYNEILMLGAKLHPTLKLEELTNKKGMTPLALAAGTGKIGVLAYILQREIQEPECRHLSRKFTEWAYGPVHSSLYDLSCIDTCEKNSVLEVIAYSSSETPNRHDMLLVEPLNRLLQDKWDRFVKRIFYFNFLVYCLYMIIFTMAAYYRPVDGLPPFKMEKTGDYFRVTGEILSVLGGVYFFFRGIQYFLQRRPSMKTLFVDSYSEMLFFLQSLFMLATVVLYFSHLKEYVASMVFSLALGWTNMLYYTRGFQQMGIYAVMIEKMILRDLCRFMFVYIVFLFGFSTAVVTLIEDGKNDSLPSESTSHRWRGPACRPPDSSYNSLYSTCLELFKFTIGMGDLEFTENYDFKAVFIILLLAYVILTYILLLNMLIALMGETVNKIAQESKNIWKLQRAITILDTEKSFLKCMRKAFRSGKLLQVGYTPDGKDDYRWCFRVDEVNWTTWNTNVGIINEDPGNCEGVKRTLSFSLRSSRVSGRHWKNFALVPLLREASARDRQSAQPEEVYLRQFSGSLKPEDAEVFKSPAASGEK

For `Cc1cc([C@@H](C)NC(=O)C2CCc3nc(C(C)(C)O)ccc3C2)c(F)cc1NS(C)(=O)=O` (stereo partly drawn) [Example 13, N—((R)-1-(2-fluoro-5-methyl-4-(methylsulfonamido)phenyl)ethyl)-2-(2-hydroxypropan-2-yl)-5,6,7,8-tetrahydroquinoline-6-carboxamide], the IC50 (commonly the concentration needed to halve the response being measured) under setting [1] fell in the range of 101 to 500 nM. For `Cc1cc([C@@H](C)NC(=O)[C@H]2CCc3nc(C(C)(C)C(F)(F)F)ccc3C2)c(F)cc1NS(C)(=O)=O` [Example 10, (S)—N—((R)-1-(2-Fluoro-5-methyl-4-(methylsulfonamido)phenyl)ethyl)-2-(1,1,1-trifluoro-2-methylpropan-2-yl)-5,6,7,8-tetrahydroquinoline-6-carboxamide], the half-inhibitory concentration (IC50) under setting [2] is less than 100 nM. With `Cc1cc([C@@H](C)NC(=O)[C@@H]2COc3cc(C(F)(F)F)ccc3O2)c(F)cc1NS(C)(=O)=O` [Example 16, (S)—N—((R)-1-(2-fluoro-5-methyl-4-(methylsulfonamido)phenyl)ethyl)-6-(trifluoromethyl)-2,3-dihydrobenzo[b][1,4]dioxine-2-carboxamide], the half-inhibitory concentration (IC50) under setting [1] was in the range of 101 to 500 nM. Still for that read-out and setting: next, `Cc1cc([C@@H](C)NC(=O)[C@H]2CCc3nc(C4(C)OCCO4)ccc3C2)c(F)cc1NS(C)(=O)=O` [Example 20, (S)—N—((R)-1-(2-fluoro-5-methyl-4-(methylsulfonamido)phenyl)ethyl)-2-(2-methyl-1,3-dioxolan-2-yl)-5,6,7,8-tetrahydroquinoline-6-carboxamide]: 101 to 500 nM. Turning to “(R)—N—((R)-1-(2-fluoro-5-methyl-4-(methylsulfonamido)phenyl)ethyl)-6-(trifluoromethyl)-2,3-dihydrobenzo[b][1,4]dioxine-2-carboxamide [Example 18]”, the half-inhibitory concentration (IC50) under setting [2] is less than 100 nM. Consider `COc1ccc2c(c1)CCC(C(=O)N[C@H](C)c1cc(C)c(NS(C)(=O)=O)cc1F)C2C` (some centres unmarked) [Example 5], for which the IC50 reads like this: under setting [1], 101 to 500 nM; under setting [3], more than 1000 nM.

With `Cc1cc([C@@H](C)NC(=O)[C@@H]2CCc3nc(C(C)(C)C(F)(F)F)ccc3C2)c(F)cc1NS(C)(=O)=O` [Example 9, (R)—N—((R)-1-(2-Fluoro-5-methyl-4-(methylsulfonamido)phenyl)ethyl)-2-(1,1,1-trifluoro-2-methylpropan-2-yl)-5,6,7,8-tetrahydroquinoline-6-carboxamide], the half-inhibitory concentration (IC50) under setting [3] is less than 100 nM.

For the compound `COC(C)(C)c1ccc2c(n1)CC[C@@H](C(=O)N[C@H](C)c1cc(C)c(NS(C)(=O)=O)cc1F)C2` (single isomer, unassigned) [Example 14], the IC50 runs as follows: under setting [1], 101 to 500 nM; under setting [3], 101 to 500 nM. For `C[C@@H](NC(=O)[C@H]1COc2cc(C(F)(F)F)ccc2O1)c1ccc(NS(C)(=O)=O)c(Cl)c1` [Example 23], the IC50 under setting [1] is less than 100 nM. On to `Cc1cc([C@@H](C)NC(=O)C2COc3ccc(Cl)cc3C2)c(F)cc1NS(C)(=O)=O` (some centres unmarked) [Example 6], for which the concentration for half-maximal inhibition (IC50) is less than 100 nM under setting [1] and less than 100 nM under setting [3]. As to `Cc1cc([C@@H](C)NC(=O)[C@H]2COc3ccc(C(F)(F)F)cc3O2)c(F)cc1NS(C)(=O)=O` [Example 17, (R)—N—((R)-1-(2-fluoro-5-methyl-4-(methylsulfonamido)phenyl)ethyl)-7-(trifluoromethyl)-2,3-dihydrobenzo[b][1,4]dioxine-2-carboxamide], the IC50 under setting [1] is less than 100 nM.

Turning to `Cc1cc([C@@H](C)NC(=O)C2CCc3nc(C(C)(C)C(F)(F)F)ccc3C2)c(F)cc1NS(C)(=O)=O` (stereo partly drawn) [Example 8, N—((R)-1-(2-Fluoro-5-methyl-4-(methylsulfonamido)phenyl)ethyl)-2-(1,1,1-trifluoro-2-methylpropan-2-yl)-5,6,7,8-tetrahydroquinoline-6-carboxamide], under setting [1], the half-maximal inhibitory concentration (IC50) is less than 100 nM. As for `Cc1cc([C@@H](C)NC(=O)C2CCc3nc(C(F)(F)F)ccc3C2)c(F)cc1NS(C)(=O)=O` (stereo partly drawn) [Example 12, N—((R)-1-(2-Fluoro-5-methyl-4-(methylsulfonamido)phenyl)ethyl)-2-(trifluoromethyl)-5,6,7,8-tetrahydroquinoline-6-carboxamide], the IC50 under setting [1] is less than 100 nM. With `Cc1cc([C@@H](C)NC(=O)C2=Cc3cc(Cl)ccc3OC2)c(F)cc1NS(C)(=O)=O` [Example 4], the half-inhibitory concentration (IC50) by setting is: under setting [1], less than 100 nM; under setting [3], less than 100 nM. Consider `Cc1cc([C@@H](C)NC(=O)C2CCc3ccccc3O2)c(F)cc1NS(C)(=O)=O` (some centres unmarked) [Example 2], for which the 50% inhibitory concentration (IC50) reads like this: under setting [1], 101 to 500 nM; under setting [3], more than 1000 nM. Take `COc1ccc2c(c1)CCC(C(=O)NC(C)c1cc(C)c(NS(C)(=O)=O)cc1F)C2` (centres unmarked) [Example 11, 6-Methoxy-1,2,3,4-tetrahydro-naphthalene-2-carboxylic acid [1-(2-fluoro-4-methanesulfonylamino-5-methyl-phenyl)-ethyl]-amide]: the IC50 under setting [1] is 101 to 500 nM. Consider `Cc1cc([C@@H](C)NC(=O)C2CCc3ccccc3C2)c(F)cc1NS(C)(=O)=O` (some centres unmarked) [Example 3, 1,2,3,4-Tetrahydronaphthalene-2-carboxylic acid f(r)-1-(2-fluoro-4-methanesulfonylamino-5-methylphenyl)ethylamide], for which the IC50 by setting is: under setting [1], less than 100 nM; under setting [3], 101 to 500 nM.

On to `C[C@@H](NC(=O)[C@H]1COc2cc(C(F)(F)F)ccc2O1)c1ccc(NS(C)(=O)=O)c(F)c1` [Example 22, (R)-6-Trifluoromethyl-2,3-dihydrobenzo[1,4]dioxine-2-carboxylic acid [(R)-1-(3-fluoro-4-methanesulfonylaminophenyl)ethyl]amide], for which the IC50 under setting [1] is less than 100 nM. As for `Cc1cc([C@@H](C)NC(=O)C2=Cc3ccccc3OC2)c(F)cc1NS(C)(=O)=O` [Example 1, (R)—N-(1-(2-Fluoro-5-methyl-4-(methylsulfonamido)phenyl)ethyl)-2h-chromene-3-carboxamide], the half-maximal inhibitory concentration (IC50) by setting is: under setting [1], less than 100 nM; under setting [3], 101 to 500 nM. The like results for `COC(C)(C)c1ccc2c(n1)CC[C@H](C(=O)N[C@H](C)c1cc(C)c(NS(C)(=O)=O)cc1F)C2` (single isomer, unassigned) [Example 15] were, in that order, less than 100 nM and less than 100 nM.

For the compound `Cc1cc([C@@H](C)NC(=O)C2COc3nc(C(F)(F)F)ccc3O2)c(F)cc1NS(C)(=O)=O` (stereo partly drawn) [Example 21, 6-trifluoromethyl-2,3-dihydro[1,4]dioxino[2,3-b]pyridine-2-carboxylic acid [(R)-1-(2-fluoro-4-methanesulfonylamino-5-methylphenyl)ethyl]amide], the IC50 under setting [1] is 101 to 500 nM. `Cc1cc([C@@H](C)NC(=O)C2CN(C)c3cc(C(F)(F)F)ccc3O2)c(F)cc1NS(C)(=O)=O` (some centres unmarked) [Example 7]: the IC50 under setting [1] is less than 100 nM and the IC50 under setting [3] was less than 100 nM. In the case of `Cc1cc([C@@H](C)NC(=O)[C@@H]2COc3ccc(C(F)(F)F)cc3O2)c(F)cc1NS(C)(=O)=O` [Example 19, (S)—N—((R)-1-(2-fluoro-5-methyl-4-(methylsulfonamido)phenyl)ethyl)-7-(trifluoromethyl)-2,3-dihydrobenzo[b][1,4]dioxine-2-carboxamide], the half-inhibitory concentration (IC50) under setting [1] lay in the range of 101 to 500 nM.
